{"source": "patent US20250000936A1", "about": "“TREATMENT OF GEOGRAPHIC ATROPHY” (Apellis Pharmaceuticals, Inc., priority 2021, published 2025)", "key": {"[1]": {"test_system": "patients with geographic atrophy (GA) secondary to age-related macular degeneration (AMD)", "test": "DERBY and OAKS combined: GA lesion growth and visual function", "format": "in vivo, human", "details": "for reduction in GA lesion growth from baseline compared to sham: combined analysis (FIG. 30); for reduction in lesion growth, study eye vs untreated fellow eye: bilateral GA, 12 months (FIG. 7D); for reduction in foveal lesion growth vs pooled sham / reduction in extrafoveal GA lesion growth vs pooled sham: month 18; for reduction of GA lesion growth vs pooled sham: months 18-24", "excerpt": "(§1) This Example describes 12-month results from two Phase 3 multi-center, randomized, double-masked, sham-controlled studies (“DERBY” and “OAKS”) to compare the efficacy and safety of intravitreal APL-2 (pegcetacoplan, also referred to as “Study Drug” in this Example) therapy with sham injections in patients with geographic atrophy (GA) secondary to age-related macular degeneration (AMD).\n(§2) To participate in the studies, subjects must have been diagnosed with GA of the macula secondary to AMD in the study eye. At screening, male and female subjects were required to fulfill all of the following inclusion criteria to be eligible for participation in the study. If both eyes met the inclusion criteria, the eye with the worst normal luminance visual acuity at the screening visit was designated as the study eye. If both eyes had the same visual acuity, the right eye was selected as the study eye. Ocular-specific inclusion criteria applied to the study eye only, unless otherwise specified.\n(§3) The design of the DERBY and OAKS studies are schematically depicted in FIG. 2. Each subject was assigned a unique screening number after signing the informed consent. Subjects who completed the study screening assessments and met all the eligibility criteria entered the study and were randomized on Day 1. As part of the screening process, the reading center evaluated FAF, OCT, Digital Color Fundus Photograph (DCFP), Near Infrared Reflectance (NIR), and fluorescein angiography (FA) to provide an objective assessment of subject eligibility. Subjects were randomized 2:2:1:1 to receive treatment with Study Drug monthly (PM), Study Drug every other month (PEOM), sham injection monthly (SM) or sham injection every other month (SEOM), respectively.\n(§4) The Study Drug was pegcetacoplan (also referred to as “APL-2”) (see FIG. 1), which was provided for intravitreal injection at 15 mg/0.1 mL (150 mg/mL) as a sterile, isotonic solution of pegcetacoplan in acetate-buffer, pH 5.0, containing trehalose, supplied in stoppered glass vials.\n(§5) The primary endpoint in the studies was the change from baseline to Month 12 in total area of GA lesion(s) in the study eye (in mm^2) based on Fundus Autofluorescence (FAF). Key secondary endpoints included change from baseline in the mean threshold sensitivity of all points (study eye) assessed by mesopic microperimetry at Month 24; change from baseline in monocular maximum reading speed (study eye), at Month 24 as assessed by MNRead or Radner reading charts (in select sites); change from baseline in mean FRI Index score (subject-level assessment) at Month 24; and change from baseline in NL-BCVA score (study eye) at Month 24 as assessed by Early Treatment Diabetic Retinopathy Study (ETDRS) chart. Additional secondary endpoints included change from baseline in LL-BCVA score (study eye) over time as assessed by ETDRS chart; change from baseline in the total area of GA lesion(s) in the study eye (in mm^2) as assessed by FAF over time other than Month 12; change from baseline in monocular critical print size (study eye), as assessed by MNRead or Radner reading charts (in select sites) over time; change from baseline in the NEI VFQ-25 distance activity subscale score (in select sites) (subject level assessment) over time; change from baseline in the number of scotomatous points assessed by mesopic microperimetry over time; and change from baseline in the mean threshold sensitivity within 500 microns outside the GA lesion, (perilesional points) assessed by mesopic microperimetry over time.\n(§6) Two sham treatment arms (SM and SEOM) were pooled into a single control (Sham) group for analyses.\n(§7) Subjects were analyzed in the treatment arm assigned at randomization.\n(§8) Unless otherwise noted, hypothesis testing and estimation of treatment effects will be performed with a mixed effect model for repeated measure (MMRM) that includes data from all three treatment arms (PM, PEOM, and Sham). […]"}, "[2]": {"test_system": "patients with geographic atrophy (GA) secondary to age-related macular degeneration (AMD)", "test": "DERBY Phase 3 study: GA lesion growth in study eye by fundus autofluorescence", "format": "in vivo, human", "details": "for reduction in GA lesion growth from baseline compared to sham: over 24 months; for reduction in lesion growth in the study eye versus the untreated study eye: bilateral GA; for reduction in lesion growth in the study eye versus the untreated study eye / percentage reduction versus sham pooled: 18 months", "excerpt": "as §1, §2, §3, §4, §5, §6, §7, §8"}, "[3]": {"details": "post-hoc quartiles of GA lesion growth over 18 months (FIG. 27)"}}, "data": [{"substance": "Poly(oxy-1,2-ethanediyl), α-hydro-ω-hydroxy-, 15,15′-diester with N-acetyl-L-isoleucyl-L-cysteinyl-L-valyl-1-methyl-L-tryptophyl-L-glutaminyl-L-α-aspartyl-L-tryptophylglycyl-L-alanyl-L-histidyl-L-arginyl-L-cysteinyl-L-threonyl-2-[2-(2-aminoethoxy) ethoxy]acetyl-N^6-carboxy-L-lysinamide cyclic (2->12)-(disulfide) [pegcetacoplan]", "values": [{"measurement": "reduction in GA lesion growth from baseline compared to sham", "setting": "[1]; EOM, p<0.0001", "value": 24, "unit": "%"}, {"measurement": "reduction in GA lesion growth from baseline compared to sham", "setting": "[1]; monthly, p<0.0001", "value": 30, "unit": "%"}, {"measurement": "key secondary endpoints measuring visual function, pegcetacoplan vs sham", "setting": "[1]; combined, 24 months (FIG. 31, NL-BCVA)", "value": "no clinically meaningful difference"}, {"measurement": "reduction in lesion growth, study eye vs untreated fellow eye", "setting": "[1]; combined, every other month", "value": 11, "unit": "%"}, {"measurement": "reduction in lesion growth, study eye vs untreated fellow eye", "setting": "[1]; combined, monthly", "value": 16, "unit": "%"}, {"measurement": "reduction in GA lesion growth vs pooled sham", "setting": "[1]; combined, every other month, month 12, p<0.0012", "value": 14, "unit": "%"}, {"measurement": "reduction in foveal lesion growth vs pooled sham", "setting": "[1]; combined, every other month, p 0.0069", "value": 13, "unit": "%"}, {"measurement": "reduction in extrafoveal GA lesion growth vs pooled sham", "setting": "[1]; combined, every other month, p=0.0006", "value": 21, "unit": "%"}, {"measurement": "reduction in GA lesion growth vs pooled sham", "setting": "[1]; combined, every other month, months 0-6 segment", "value": 12, "unit": "%"}, {"measurement": "reduction in GA lesion growth vs pooled sham", "setting": "[1]; combined, every other month, months 12-18 segment", "value": 17, "unit": "%"}, {"measurement": "reduction of GA lesion growth vs pooled sham", "setting": "[1]; combined, extrafoveal lesions, EOM", "value": 28, "unit": "%"}, {"measurement": "reduction in GA lesion growth vs pooled sham", "setting": "[1]; combined, extrafoveal lesions, every other month, 12 months, p=0.0002", "value": 23, "unit": "%"}, {"measurement": "reduction in GA lesion growth vs pooled sham", "setting": "[1]; combined, extrafoveal lesions, monthly, 12 months, p<0.0001", "value": 26, "unit": "%"}, {"measurement": "reduction of GA lesion growth vs pooled sham", "setting": "[1]; combined, extrafoveal lesions, monthly", "value": 28, "unit": "%"}, {"measurement": "reduction of GA lesion growth vs pooled sham", "setting": "[1]; combined, foveal lesions, EOM", "value": 28, "unit": "%"}, {"measurement": "reduction of GA lesion growth vs pooled sham", "setting": "[1]; combined, foveal lesions, monthly", "value": 34, "unit": "%"}, {"measurement": "reduction in GA lesion growth vs pooled sham", "setting": "[1]; combined, monthly, month 12, p<0.0001", "value": 17, "unit": "%"}, {"measurement": "reduction in extrafoveal GA lesion growth vs pooled sham", "setting": "[1]; combined, monthly, p<0.0001", "value": 26, "unit": "%"}, {"measurement": "reduction in foveal lesion growth vs pooled sham", "setting": "[1]; combined, monthly, p=0.0070", "value": 13, "unit": "%"}, {"measurement": "reduction in GA lesion growth vs pooled sham", "setting": "[1]; combined, monthly, months 0-6 segment (FIG. 12B)", "value": 13, "unit": "%"}, {"measurement": "reduction in GA lesion growth vs pooled sham", "setting": "[1]; combined, monthly, months 12-18 segment (FIG. 12B)", "value": 21, "unit": "%"}, {"measurement": "reduction of GA lesion growth versus sham", "setting": "[2]; EOM, months 18-24, p=0.0002", "value": 29, "unit": "%"}, {"measurement": "reduction in GA lesion growth from baseline compared to sham", "setting": "[2]; EOM, p 0.0030 nominal", "value": 16, "unit": "%"}, {"measurement": "reduction in lesion growth in the study eye versus the untreated study eye", "setting": "[2]; every other month, p<0.0001", "value": 16, "unit": "%"}, {"measurement": "reduction in lesion growth in the study eye versus the untreated study eye", "setting": "[2]; monthly, p=0.0053", "value": 12, "unit": "%"}, {"measurement": "reduction in GA lesion growth versus sham", "setting": "[2]; distance >250 microns, every other month, p=0.0689", "value": 19, "unit": "%"}, {"measurement": "reduction in GA lesion growth versus sham", "setting": "[2]; distance >250 microns, monthly, p=0.2691", "value": 13, "unit": "%"}, {"measurement": "reduction in GA lesion growth versus sham", "setting": "[2]; distance ≤250 microns, every other month, p=0.0724", "value": 12, "unit": "%"}, {"measurement": "reduction in GA lesion growth versus sham", "setting": "[2]; distance ≤250 microns, monthly, p=0.0490", "value": 12, "unit": "%"}, {"measurement": "percentage reduction versus sham pooled", "setting": "[2]; every other month, >50 microns, p=0.0047", "value": 24, "unit": "%"}, {"measurement": "percentage reduction versus sham pooled", "setting": "[2]; every other month, >100 microns, p=0.0022", "value": 26, "unit": "%"}, {"measurement": "percentage reduction versus sham pooled", "setting": "[2]; every other month, >150 microns, p=0.0076", "value": 24, "unit": "%"}, {"measurement": "percentage reduction versus sham pooled", "setting": "[2]; every other month, >200 microns, p 0.0229", "value": 20, "unit": "%"}, {"measurement": "reduction in GA lesion growth vs pooled sham", "setting": "[2]; every other month, month 12, p=0.0750", "value": 11, "unit": "%"}, {"measurement": "reduction in GA lesion growth, covariate-adjusted post-hoc analysis", "setting": "[2]; every other month, month 18, p=0.0023", "value": 16, "unit": "%"}, {"measurement": "reduction in extrafoveal GA lesion growth, covariate-adjusted", "setting": "[2]; every other month, month 18, p=0.0035", "value": 24, "unit": "%"}, {"measurement": "reduction in extrafoveal GA lesion growth vs pooled sham", "setting": "[2]; every other month, month 18, p=0.0075", "value": 23, "unit": "%"}, {"measurement": "reduction in GA lesion growth vs pooled sham", "setting": "[2]; every other month, month 18, p=0.0332 nominal", "value": 12, "unit": "%"}, {"measurement": "reduction in foveal GA lesion growth, covariate-adjusted", "setting": "[2]; every other month, month 18, p=0.1723", "value": 9, "unit": "%"}, {"measurement": "reduction in foveal GA lesion growth vs pooled sham", "setting": "[2]; every other month, month 18, p=0.5538", "value": 4, "unit": "%"}, {"measurement": "reduction in GA lesion growth vs pooled sham", "setting": "[2]; every other month, months 6-12 segment (FIG. 12A)", "value": 16, "unit": "%"}, {"measurement": "percentage reduction versus sham pooled", "setting": "[2]; monthly, >50 microns, p=0.0433", "value": 18, "unit": "%"}, {"measurement": "percentage reduction versus sham pooled", "setting": "[2]; monthly, >100 microns, p=0.0266", "value": 20, "unit": "%"}, {"measurement": "percentage reduction versus sham pooled", "setting": "[2]; monthly, >150 microns, p 0.0468", "value": 19, "unit": "%"}, {"measurement": "percentage reduction versus sham pooled", "setting": "[2]; monthly, >200 microns, p=0.0985", "value": 16, "unit": "%"}, {"measurement": "reduction in GA lesion growth vs pooled sham", "setting": "[2]; monthly, month 12, p=0.0528", "value": 12, "unit": "%"}, {"measurement": "reduction in GA lesion growth vs pooled sham", "setting": "[2]; monthly, month 18, p 0.0254 nominal", "value": 13, "unit": "%"}, {"measurement": "reduction in GA lesion growth, covariate-adjusted post-hoc analysis", "setting": "[2]; monthly, month 18, p=0.0024", "value": 16, "unit": "%"}, {"measurement": "reduction in foveal GA lesion growth, covariate-adjusted", "setting": "[2]; monthly, month 18, p=0.0280", "value": 14, "unit": "%"}, {"measurement": "reduction in extrafoveal GA lesion growth, covariate-adjusted", "setting": "[2]; monthly, month 18, p=0.0380", "value": 18, "unit": "%"}, {"measurement": "reduction in extrafoveal GA lesion growth vs pooled sham", "setting": "[2]; monthly, month 18, p=0.0606", "value": 17, "unit": "%"}, {"measurement": "reduction in foveal GA lesion growth vs pooled sham", "setting": "[2]; monthly, month 18, p=0.2015", "value": 9, "unit": "%"}, {"measurement": "reduction in GA lesion growth vs pooled sham", "setting": "[2]; monthly, months 6-12 segment (FIG. 12A)", "value": 17, "unit": "%"}, {"measurement": "reduction of GA lesion growth versus sham", "setting": "[2]; monthly, months 18-24, p<0.0001", "value": 36, "unit": "%"}, {"measurement": "reduction in GA lesion growth from baseline compared to sham", "setting": "[2]; monthly, p=0.0004 nominal", "value": 19, "unit": "%"}, {"measurement": "decrease of patients in Q4 (fast progressors), relative to sham", "setting": "[2]; [3]", "value": 33, "unit": "%"}, {"measurement": "increase of patients in Q1 (slow progressors), relative to sham", "setting": "[2]; [3]", "value": 15, "unit": "%"}]}]}
